In US12637414B2, “Arylamides and methods of use thereof” (Genzyme Corporation, priority 2019, dated 2026):

Biological target: T1, human Cystic Fibrosis Transmembrane Conductance Regulator (CFTR) harboring the ΔF508 mutation (Homo sapiens, UniProt P13569, DEL508-508)
T1 construct: expressed in transfected cells; host or cells: H441 carcinoma line (G418 selection)
Assay: H441 cell Emax and EC50: HRP-tagged ΔF508-CFTR cell surface luminescence assay
Assay type: cell-based
Conditions: H441 cells expressing ΔF508-CFTR-HRP, 27° C., two nights; for EC50: 15-point dose-response, top 24.5 μM; for Emax: NCI-H441, % of maximum VX809 signal
Summary of the method: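 Cells express ΔF508-CFTR carrying an HRP tag in extracellular loop 4 (CMV promoter); ~10K cells/well treated with a 15-point series from 24.5 µM and incubated two nights at 27° C. Surface CFTR read by luminescence from HRP substrate. EC50 and Emax given relative to maximal VX809 (260 µM stock) signal.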

T1 sequence (P13569 with tags, fused parts or gaps DEL508-508): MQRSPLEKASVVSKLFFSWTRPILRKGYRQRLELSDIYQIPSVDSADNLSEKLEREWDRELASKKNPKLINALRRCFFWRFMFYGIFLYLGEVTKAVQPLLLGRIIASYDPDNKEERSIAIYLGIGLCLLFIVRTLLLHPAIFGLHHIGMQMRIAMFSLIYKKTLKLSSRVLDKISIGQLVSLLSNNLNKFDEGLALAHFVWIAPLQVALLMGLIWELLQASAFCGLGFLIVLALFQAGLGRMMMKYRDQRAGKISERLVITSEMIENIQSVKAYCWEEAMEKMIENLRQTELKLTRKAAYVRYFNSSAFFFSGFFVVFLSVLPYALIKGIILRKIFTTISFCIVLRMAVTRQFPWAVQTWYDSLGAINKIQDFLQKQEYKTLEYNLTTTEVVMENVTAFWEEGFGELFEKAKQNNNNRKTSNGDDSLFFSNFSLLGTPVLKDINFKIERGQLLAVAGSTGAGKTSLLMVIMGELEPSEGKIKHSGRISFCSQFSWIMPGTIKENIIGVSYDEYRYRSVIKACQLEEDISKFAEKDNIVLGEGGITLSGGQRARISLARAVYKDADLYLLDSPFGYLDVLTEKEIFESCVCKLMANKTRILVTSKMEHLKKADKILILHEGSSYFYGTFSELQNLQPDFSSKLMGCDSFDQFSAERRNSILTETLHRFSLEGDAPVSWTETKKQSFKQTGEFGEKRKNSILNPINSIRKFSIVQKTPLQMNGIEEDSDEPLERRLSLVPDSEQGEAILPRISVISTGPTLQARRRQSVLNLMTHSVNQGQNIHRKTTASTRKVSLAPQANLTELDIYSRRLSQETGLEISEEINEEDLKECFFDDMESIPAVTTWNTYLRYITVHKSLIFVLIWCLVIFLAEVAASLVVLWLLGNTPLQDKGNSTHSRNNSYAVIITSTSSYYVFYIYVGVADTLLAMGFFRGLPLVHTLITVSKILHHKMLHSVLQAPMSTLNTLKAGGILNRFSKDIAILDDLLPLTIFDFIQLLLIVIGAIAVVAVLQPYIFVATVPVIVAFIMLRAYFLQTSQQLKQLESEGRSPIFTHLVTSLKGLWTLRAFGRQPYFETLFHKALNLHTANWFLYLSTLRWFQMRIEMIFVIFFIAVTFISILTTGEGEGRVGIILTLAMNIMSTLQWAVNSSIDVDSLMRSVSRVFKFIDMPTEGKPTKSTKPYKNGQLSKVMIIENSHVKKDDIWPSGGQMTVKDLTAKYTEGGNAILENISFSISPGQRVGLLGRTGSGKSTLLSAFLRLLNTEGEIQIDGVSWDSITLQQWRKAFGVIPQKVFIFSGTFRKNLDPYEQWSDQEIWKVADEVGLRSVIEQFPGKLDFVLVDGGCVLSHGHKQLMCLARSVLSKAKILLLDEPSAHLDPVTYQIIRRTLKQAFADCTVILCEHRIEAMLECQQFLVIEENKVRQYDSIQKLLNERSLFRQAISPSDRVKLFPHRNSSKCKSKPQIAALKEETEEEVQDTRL

SMILES	EC50	Emax
O=C(N[C@H](C(=O)O)C12CC3CC(CC(C3)C1)C2)c1ccc2cccnc2c1OCc1nc2ccccc2s1 [compound 51]	1600 nM	206%
O=C(N[C@H](C(=O)O)C12CC3CC(CC(C3)C1)C2)c1ccc2c(F)cccc2c1OCc1ccc(C(F)(F)F)cc1 [compound 1]	206 nM	176%
CS(=O)(=O)c1ccc(COc2c(C(=O)N[C@H](C(=O)O)C34CC5CC(CC(C5)C3)C4)ccc3ccccc23)cc1 [compound 58]	15800 nM	30.1%
CCOC12CC3CC(C1)CC([C@H](NC(=O)c1ccc4ccccc4c1OCc1ccc(C(F)(F)F)cc1)C(=O)O)(C3)C2 [compound 27]	153 nM	215%
O=C(N[C@H](C(=O)O)C12CC3CC(CC(O)(C3)C1)C2)c1ccc2ccccc2c1OCc1ccc(OC(F)(F)F)cc1 [compound 35]	1130 nM	141%
O=C(N[C@H](C(=O)O)C12CC3CC(CC(O)(C3)C1)C2)c1ccc2sccc2c1OCC1CCC(F)(F)CC1 [compound 108, (2S)-2-[[4-[(4,4-difluorocyclohexyl)methoxy]benzothiophene-5-carbonyl]amino]-2-(3-hydroxy-1-adamantyl)acetic acid]	11400 nM	78.4%
O=C(N[C@H](C(=O)O)C12CC3CC(CC(C3)C1)C2)c1ccc2cccnc2c1OCc1ccc(Cl)c(Cl)c1 [compound 31]	308 nM	194%
O=C(N[C@H](C(=O)O)C12CC3CC(CC(C3)C1)C2)c1ccc2sccc2c1OCc1ccc(C(F)(F)F)cc1 [compound 112, (2S)-2-(1-adamantyl)-2-[[4-[[4-(trifluoromethyl)phenyl]methoxy]benzothiophene-5-carbonyl]amino]acetic acid]	360 nM	190%
Cc1ccc2c(c1C)N(Cc1ccc(C(F)(F)F)cc1)CN([C@H](C(=O)O)C13CC4CC(CC(C4)C1)C3)C2=O [compound 136, (2S)-2-(1-adamantyl)-2-[7,8-dimethyl-4-oxo-1-[[4-(trifluoromethyl)phenyl]methyl]-2H-quinazolin-3-yl]acetic acid]	1580 nM	17%
O=C(N[C@H](C(=O)O)C12CC3CC(CC(O)(C3)C1)C2)c1ccc2ccccc2c1OCc1ccc(C(F)(F)F)cc1 [compound 17]	903 nM	156%
O=C(N[C@H](C(=O)O)C12CC3CC(CC(C3)C1)C2)c1ccc2sccc2c1OCC1CCCCC1 [compound 104, (2S)-2-(1-adamantyl)-2-[[4-(cyclohexylmethoxy)benzothiophene-5-carbonyl]amino]acetic acid]	1230 nM	228%
O=C(N[C@H](C(=O)O)C12CC3CC(CC(C3)C1)C2)c1ccc2ccccc2c1OCc1nc2ccccc2s1 [compound 65]	1320 nM	198%
O=C(N[C@H](C(=O)O)C12CC3CC(CC(C3)C1)C2)c1ccc2ccccc2c1OCc1ccc(C(F)(F)F)cc1 [compound 96, (2S)-2-(1-adamantyl)-2-[[1-[[4-(trifluoromethyl)phenyl]methoxy]naphthalene-2-carbonyl]amino]acetic acid]	398 nM	180%
O=C(N[C@H](C(=O)O)C12CC3CC(CC(C3)C1)C2)c1ccc2ccccc2c1OCc1ccc(Cl)c(Cl)c1 [compound 89]	350 nM	204%
O=C(N[C@H](C(=O)O)C12CC3CC(CC(C3)C1)C2)c1ccc2ccccc2c1OCc1ccc(C(F)(F)C(F)(F)F)cc1 [compound 40]	113 nM	149%
CC12CC3(C)CC(C)(C1)CC(C(NC(=O)c1ccc4ccccc4c1OCc1ccc(C(F)(F)C(F)(F)F)cc1)C(=O)O)(C2)C3 (centres unmarked) [compound 76]	212 nM	196%
O=C(N[C@H](C(=O)O)C12CC3CC(CC(C3)C1)C2)c1ccc2ccccc2c1OCC1CCCCC1 [compound 52]	903 nM	171%
COCCOC12CC3CC(C1)CC([C@H](NC(=O)c1ccc4ccccc4c1OCc1ccc(C(F)(F)F)cc1)C(=O)O)(C3)C2 [compound 43]	267 nM	128%
O=C(N[C@H](C(=O)O)[C@]12C[C@H]3C[C@](O)(C[C@](Cl)(C3)C1)C2)c1ccc2ccccc2c1OCc1ccc(OC(F)(F)F)cc1 [compound 80, (S)-2-((1S,3S,5R,7S)-3-chloro-5-hydroxyadamantan-1-yl)-2-(1-((4-(trifluoromethoxy)benzyl)oxy)-2-naphthamido)acetic acid]	78 nM	184%
O=C(N[C@H](C(=O)O)C12CC3CC(CC(C3)C1)C2)c1ccc2cc(F)ccc2c1OCC1CCCCC1 [compound 45]	939 nM	142%
O=C(N[C@H](C(=O)O)C12CC3CC(CC(C3)C1)C2)c1ccc2ccccc2c1OCc1ccc([N+](=O)[O-])cc1 [compound 73]	1320 nM	118%
O=C(N[C@H](C(=O)O)C12CC3CC(CC(O)(C3)C1)C2)c1ccc2sccc2c1OCc1ccc(C(F)(F)F)cc1 [compound 105, (2S)-2-(3-hydroxy-1-adamantyl)-2-[[4-[[4-(trifluoromethyl)phenyl]methoxy]benzothiophene-5-carbonyl]amino]acetic acid]	3550 nM	150%
